The results in this text go back to ChEMBL document CHEMBL1201862, “PubChem BioAssay data set” (2004).

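Five compound concentrations were applied to cells in 96-well plates for 48 hours; endpoints were derived by simple linear interpolation of the resulting dose-response curve. GI50: concentration for 50% inhibition of growth.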 Calls of active or inactive are those of the source. Cut-off read from the data, not from the text of the source: active = GI50 up to about 1.1 µM and inactive = higher. Bounds are passed on as bounds.

Test systems include OVCAR-4; SR; MOLT-4; OVCAR-8; 786-0; HCT-116; PC-3; MDA-N; HL-60; RXF 393; SK-OV-3; UO-31; A549; IGROV-1; SK-MEL-2; KM12; COLO 205; Hs-578T; TK-10; SF-268.
Assay in all cases: growth of human tumour cells (NCI), 48 h

Turning to `CC(C)(C)OCC1NC(=O)[C@@H]2Cc3c([nH]c4ccccc34)C(c3ccccc3)N2C1=O` (stereo not given in full), the GI50 in the assay on OVCAR-4 is > 50 µM (inactive); in the assay on SR, > 22.4 µM (inactive); in the assay with MOLT-4, 16.2 µM (inactive); in the assay with OVCAR-8 it was > 50 µM (inactive); in the assay on 786-0 it was > 50 µM (inactive); in the assay on HCT-116, > 50 µM (inactive). For the same compound, the GI50 was > 50 µM (inactive) in the assay on PC-3; > 50 µM (inactive) in the assay with MDA-N; > 26.2 µM (inactive) with HL-60; > 50 µM (inactive) in the assay on RXF 393; > 50 µM (inactive) in the assay on SK-OV-3; > 50 µM (inactive) in the assay on UO-31. Moreover, the GI50 with A549, with IGROV-1, in the assay on SK-MEL-2, with KM12, in the assay with COLO 205 and in the assay with Hs-578T was > 50 µM (inactive) each time. Moreover, the GI50 in the assay on TK-10 and with SF-268 was > 50 µM (inactive) each time.

Consider `COc1cc(C)c(C2NC(=O)c3ccccc3N2)cc1C` (stereo not given), for which the GI50 with OVCAR-4 was 0.342 µM (active); with SR it was 0.0364 µM (active); in the assay with MOLT-4, 1.04 µM (active); in the assay on OVCAR-8 it was 0.942 µM (active); in the assay with 786-0 it was 0.417 µM (active); in the assay on HCT-116, 0.34 µM (active). Moreover, the GI50 in the assay on PC-3 is 0.265 µM (active); with MDA-N, 0.0283 µM (active); with HL-60, 0.1 µM (active); with RXF 393, 0.358 µM (active); in the assay with SK-OV-3 it was 0.378 µM (active); in the assay with UO-31, 0.468 µM (active). The GI50 in the assay on A549 is 0.596 µM (active); in the assay with IGROV-1 it was 0.472 µM (active); with SK-MEL-2, 0.297 µM (active); with KM12 it was 0.15 µM (active); with COLO 205, 0.313 µM (active); with Hs-578T it was 0.234 µM (active). Besides, the GI50 was 2.28 µM (inactive) in the assay with TK-10 and 0.518 µM (active) with SF-268.

Turning to `Cc1c(/C=N/NC(=S)Nc2ccccc2Cl)c(=O)n(-c2ccccc2)n1C`, the GI50 in the assay with OVCAR-4 is 42.4 µM (inactive); with SR it was 43.8 µM (inactive); in the assay with MOLT-4, 20.5 µM (inactive); with OVCAR-8, 27.7 µM (inactive); in the assay on 786-0, 19.9 µM (inactive); with HCT-116, 28.6 µM (inactive). Also, the GI50 in the assay on PC-3 was 43 µM (inactive); with MDA-N it was 87.3 µM (inactive); in the assay with HL-60, 22.4 µM (inactive); with RXF 393 it was 16.1 µM (inactive); with SK-OV-3 it was 31 µM (inactive); in the assay with UO-31, 15.1 µM (inactive). In addition, the GI50 in the assay on A549 is 27.6 µM (inactive); in the assay on IGROV-1, 40.3 µM (inactive); in the assay on SK-MEL-2 it was > 100 µM (inactive); in the assay on KM12 it was 29.3 µM (inactive); with COLO 205 it was 38.7 µM (inactive); with Hs-578T, 24 µM (inactive). For the same compound, the results for the GI50 in the assay on TK-10 and in the assay with SF-268 were 23.4 µM (inactive) and 43.8 µM (inactive), respectively.

As to `CC(=O)Nc1ncc2c(n1)-c1ccccc1OC2`, the GI50 in the assay on OVCAR-4 was > 100 µM (inactive); in the assay on SR, > 100 µM (inactive); in the assay with MOLT-4, > 100 µM (inactive); with OVCAR-8, > 100 µM (inactive); with 786-0, 65.9 µM (inactive); with HCT-116, > 100 µM (inactive). In addition, the GI50 in the assay with PC-3, with MDA-N, in the assay on HL-60, in the assay on RXF 393, with SK-OV-3 and in the assay with UO-31 was > 100 µM (inactive) each time. The GI50 in the assay on A549 is > 100 µM (inactive); in the assay on IGROV-1, > 100 µM (inactive); in the assay with SK-MEL-2, > 100 µM (inactive); in the assay on KM12, > 100 µM (inactive); in the assay with COLO 205, > 100 µM (inactive); in the assay with Hs-578T, 19.5 µM (inactive). In addition, the GI50 in the assay on TK-10 was > 100 µM (inactive); in the assay on SF-268, 80.7 µM (inactive).

Consider `O=C(O)[C@H](CCC[C@H]1C(=O)O[C@H](c2ccccc2)[C@H](c2ccccc2)N1C(=O)OCc1ccccc1)N[C@@H](c1ccccc1)[C@H](O)c1ccccc1`, for which the GI50 in the assay on OVCAR-4 was 32.2 µM (inactive); with SR, 20.7 µM (inactive); in the assay with MOLT-4 it was 24.3 µM (inactive); in the assay on OVCAR-8 it was 20.5 µM (inactive); with 786-0, 32.5 µM (inactive); with HCT-116, 20.8 µM (inactive). The GI50 was 37.1 µM (inactive) with PC-3; 21.7 µM (inactive) in the assay on MDA-N; 17.4 µM (inactive) in the assay on HL-60; 22.6 µM (inactive) in the assay on RXF 393; 61.8 µM (inactive) in the assay on SK-OV-3; > 100 µM (inactive) in the assay on UO-31. Also, the GI50 in the assay with A549 is > 100 µM (inactive); in the assay with IGROV-1 it was 42.8 µM (inactive); with SK-MEL-2, 20 µM (inactive); in the assay with KM12, 19.7 µM (inactive); in the assay on COLO 205 it was 30.8 µM (inactive); in the assay with Hs-578T, 25.4 µM (inactive). Moreover, the GI50 in the assay with TK-10 is 40.7 µM (inactive); in the assay with SF-268, 33.7 µM (inactive).

As to `NCCSC(c1ccccc1)c1ccccc1`, the GI50 with OVCAR-4 is 20.4 µM (inactive); in the assay with SR it was 17.6 µM (inactive); with MOLT-4, 15.7 µM (inactive); in the assay on OVCAR-8, 20.6 µM (inactive); in the assay with 786-0, 17.5 µM (inactive); with HCT-116, 16.7 µM (inactive). For the same compound, the GI50 is 21.8 µM (inactive) in the assay on PC-3; 18.7 µM (inactive) in the assay on MDA-N; 0.314 µM (active) in the assay on HL-60; 17.7 µM (inactive) in the assay on RXF 393; 22.5 µM (inactive) in the assay on SK-OV-3; 15 µM (inactive) in the assay on UO-31. The GI50 in the assay with A549 was 39.3 µM (inactive); in the assay with IGROV-1, 13.1 µM (inactive); with SK-MEL-2, 18.4 µM (inactive); in the assay with KM12 it was 19.7 µM (inactive); with COLO 205, 23.7 µM (inactive); in the assay on Hs-578T it was 24.2 µM (inactive). In addition, the GI50 is 16.9 µM (inactive) in the assay on TK-10 and 26.6 µM (inactive) with SF-268.

As to `COC(=O)c1sc2c(Cl)c(Cl)sc2c1Cl`, the GI50 in the assay with OVCAR-4 is > 100 µM (inactive); in the assay on SR, > 100 µM (inactive); in the assay with MOLT-4, > 100 µM (inactive); in the assay on OVCAR-8, > 100 µM (inactive); in the assay with 786-0 it was 43.8 µM (inactive); with HCT-116, > 100 µM (inactive). Further, the GI50 in the assay on PC-3, in the assay with MDA-N, in the assay with HL-60, in the assay with RXF 393, in the assay with SK-OV-3 and with UO-31 was > 100 µM (inactive) throughout. For the same compound, the GI50 with A549, in the assay with IGROV-1, in the assay on SK-MEL-2, in the assay with KM12, in the assay on COLO 205 and in the assay with Hs-578T was > 100 µM (inactive) throughout. Also, the GI50 with TK-10 was 24.2 µM (inactive); in the assay with SF-268, > 100 µM (inactive).

Turning to `C1=N\c2ccc(cc2)-c2ccc(cc2)/N=C\c2ccccc2OCc2cccc(n2)COc2ccccc2/1`, the GI50 in the assay with OVCAR-4 is > 100 µM (inactive); in the assay on SR, > 100 µM (inactive); with MOLT-4 it was > 100 µM (inactive); in the assay on OVCAR-8, 31.8 µM (inactive); with 786-0 it was 9.38 µM (inactive); with HCT-116, 24.4 µM (inactive). For the same compound, the GI50 in the assay with PC-3 was > 100 µM (inactive); in the assay with MDA-N, > 100 µM (inactive); in the assay on HL-60, > 100 µM (inactive); in the assay on RXF 393 it was 15.2 µM (inactive); in the assay on SK-OV-3, 30.1 µM (inactive); in the assay with UO-31 it was > 60.7 µM (inactive). Further, the GI50 in the assay with A549 was 72.8 µM (inactive); in the assay with IGROV-1, 40.6 µM (inactive); in the assay with SK-MEL-2, 27.6 µM (inactive); with KM12, > 100 µM (inactive); in the assay on COLO 205, > 100 µM (inactive); with Hs-578T it was 13.1 µM (inactive). Moreover, the results for the GI50 in the assay on TK-10 and with SF-268 were 26.6 µM (inactive) and 20.6 µM (inactive), respectively.

As to `COc1cccc2c1Cc1cc(-c3ccccc3)[n+](C)n1-2`, the GI50 was 3.19 µM (inactive) in the assay with OVCAR-4; 7.57 µM (inactive) in the assay on SR; 2.92 µM (inactive) in the assay on MOLT-4; 6.84 µM (inactive) in the assay with OVCAR-8; 7.24 µM (inactive) with 786-0; 3.5 µM (inactive) in the assay on HCT-116. In addition, the GI50 in the assay on PC-3 is 11.4 µM (inactive); in the assay with MDA-N, 11.9 µM (inactive); in the assay with HL-60, 4.06 µM (inactive); in the assay on RXF 393, 19 µM (inactive); in the assay with SK-OV-3, 33.2 µM (inactive); in the assay on UO-31 it was 22.5 µM (inactive). Besides, the GI50 is 27.9 µM (inactive) with A549; 12.5 µM (inactive) in the assay with IGROV-1; 17.5 µM (inactive) with SK-MEL-2; 11.5 µM (inactive) in the assay on KM12; 1.38 µM (inactive) in the assay on COLO 205; 25.1 µM (inactive) in the assay on Hs-578T. The results for the GI50 in the assay on TK-10 and in the assay on SF-268 were 28.8 µM (inactive) and 19.9 µM (inactive), respectively.

`O=C(O)c1ccccc1CC(Cc1ccccc1)C(=O)O` (stereo not given): the GI50 in the assay with OVCAR-4, in the assay on SR, in the assay on MOLT-4, in the assay on OVCAR-8, in the assay on 786-0 and in the assay with HCT-116 was > 100 µM (inactive) throughout. Moreover, the GI50 in the assay on PC-3, in the assay with MDA-N, in the assay with HL-60, with RXF 393, in the assay with SK-OV-3 and with UO-31 was > 100 µM (inactive) throughout. The GI50 with A549, in the assay on IGROV-1, in the assay on SK-MEL-2, with KM12, in the assay on COLO 205 and with Hs-578T was > 100 µM (inactive) in each case. The GI50 in the assay with TK-10 is > 100 µM (inactive); with SF-268 it was 97.1 µM (inactive).
